# US7902373B2 (Pfizer Inc, priority 2006, dated 2011)
# Molecular target: human recombinant H-PGDS (Homo sapiens, UniProt O60760)
# Test: Fluorescence intensity h-PGDS TBA enzyme assay
# Assay type: biochemical
# Details: Examples up to 622 (and 3a, 3b)
# Sequence of human recombinant H-PGDS (O60760 whole entry): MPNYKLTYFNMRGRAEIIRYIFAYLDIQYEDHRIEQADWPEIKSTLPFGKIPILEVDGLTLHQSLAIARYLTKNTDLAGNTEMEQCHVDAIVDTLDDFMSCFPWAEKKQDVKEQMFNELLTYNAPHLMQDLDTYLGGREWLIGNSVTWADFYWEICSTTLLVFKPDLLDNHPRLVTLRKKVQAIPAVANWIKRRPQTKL
row,Compound,IC50 [nM]
1,"COCc1cc(CN2CCC(NC(=O)c3ccc(-c4cccc(F)c4)nc3)CC2)ccc1OC [Example 327, 6-(3-Fluorophenyl)-N-{1-[4-methoxy-3-(methoxymethyl)benzyl]piperidin-4-yl}nicotinamide]",1.55
2,"CCn1ncc(CN2CCC(NC(=O)c3ccc(-c4cccc(F)c4)nc3)CC2)c1C [Example 329, N-{1-[(1-Ethyl-5-methyl-1H-pyrazol-4-yl)methyl]piperidin-4-yl}-6-(3-fluorophenyl)nicotinamide]",1.94
3,"O=C(NC1CCN(Cc2ccc(-c3ncccn3)cc2)CC1)c1ccc(-c2cccc(F)c2)nc1 [Example 330, 6-(3-Fluorophenyl)-N-[1-(4-pyrimidin-2-ylbenzyl)piperidin-4-yl]nicotinamide]",1.71
4,"O=C(NC1CCN(Cc2cc(F)cc(F)c2F)CC1)c1ccc(-c2cccc(F)c2)nc1 [Example 331, 6-(3-Fluorophenyl)-N-[1-(2,3,5-trifluorobenzyl)piperidin-4-yl]nicotinamide]",2.71
5,"O=C(NC1CCN(Cc2cc(F)c(F)c(F)c2)CC1)c1ccc(-c2cccc(F)c2)nc1 [Example 332, 6-(3-fluorophenyl)-N-[1-(345-trifluorobenzyl)piperidin-4-yl]nicotinamide]",1.19
6,"CC(C)(C)OC(=O)NC1(CN2CCC(NC(=O)c3ccc(-c4cccc(F)c4)nc3)CC2)CCC1 [Example 334, tert-Butyl (1-{[4-({[6-(3-fluorophenyl)pyridin-3-yl]carbonyl}amino)piperidin-1-yl]methyl}cyclobutyl)carbamate]",2.74
7,"CC(CCCC(C)(C)O)CCN1CCC(NC(=O)c2ccc(-c3cccc(F)c3)nc2)CC1 (stereo not drawn) [Example 336, 6-(3-Fluorophenyl)-N-[1-(7-hydroxy-3,7-dimethyloctyl)piperidin-4-yl]nicotinamide]",1.82
8,"O=C(NC1CCN(Cc2nc3ccccc3[nH]2)CC1)c1ccc(-c2cccc(F)c2)nc1 [Example 337, N-[1-(1H-Benzimidazol-2-ylmethyl)piperidin-4-yl]-6-(3-fluorophenyl)nicotinamide]",1.42
9,CCOc1ccc2nc(CN3CCC(NC(=O)c4ccc(-c5cccc(F)c5)nc4)CC3)ccc2c1 [Example 338],62.7
10,"O=C(NC1CCN(Cc2cccn3cc(Br)nc23)CC1)c1ccc(-c2cccc(F)c2)nc1 [Example 343, N-{1-[(2-Bromoimidazo[1,2-a]pyridin-8-yl)methyl]piperidin-4-yl}-6-(3-fluorophenyl)nicotinamide]",1.9
11,"CC(C)(C)C(=O)Nc1ncccc1CN1CCC(NC(=O)c2ccc(-c3cccc(F)c3)nc2)CC1 [Example 346, N-[1-({2-[(2,2-Dimethylpropanoyl)amino]pyridin-3-yl}methyl)piperidin-4-yl]-6-(3-fluorophenyl)nicotinamide]",4.07
12,"O=C(NC1CCN(Cc2c[nH]c3c(F)c(F)c(F)c(F)c23)CC1)c1ccc(-c2cccc(F)c2)nc1 [Example 349, 6-(3-Fluorophenyl)-N-{1-[(4,5,6,7-tetrafluoro-1H-indol-3-yl)methyl]piperidin-4-yl}nicotinamide]",2.96
13,"Cc1ccc(CN2CCC(NC(=O)c3ccc(-c4cccc(F)c4)nc3)CC2)cn1 [Example 354, 6-(3-Fluorophenyl)-N-{1-[(6-methylpyridin-3-yl)methyl]piperidin-4-yl}nicotinamide]",2.92
14,"Cc1c(CN2CCC(NC(=O)c3ccc(-c4cccc(F)c4)nc3)CC2)cnn1-c1ccccc1 [Example 356, 6-(3-Fluorophenyl)-N-{1-[(5-methyl-1-phenyl-1H-pyrazol-4-yl)methyl]piperidin-4-yl}nicotinamide]",2
15,"Cc1nc(-c2ccccc2)ncc1CN1CCC(NC(=O)c2ccc(-c3cccc(F)c3)nc2)CC1 [Example 357, 6-(3-Fluorophenyl)-N-{1-[(4-methyl-2-phenylpyrimidin-5-yl)methyl]piperidin-4-yl}nicotinamide]",6.66
16,"O=C(NC1CCN(Cc2ccc(Oc3ccccc3)nc2)CC1)c1ccc(-c2cccc(F)c2)nc1 [Example 358, 6-(3-Fluorophenyl)-N-{1-[(6-phenoxypyridin-3-yl)methyl]piperidin-4-yl}nicotinamide]",1.72
17,"CCC(C)CCN1CCC(NC(=O)c2ccc(-c3cccc(F)c3)nc2)CC1 (stereo not drawn) [Example 360, 6-(3-Fluorophenyl)-N-[1-(3-methylpentyl)piperidin-4-yl]nicotinamide]",2.76
18,"Cc1nn(C(C)C)c(C)c1CN1CCC(NC(=O)c2ccc(-c3cccc(F)c3)nc2)CC1 [Example 361, 6-(3-Fluorophenyl)-N-{1-[(1-isopropyl-3,5-dimethyl-1H-pyrazol-4-yl)methyl]piperidin-4-yl}nicotinamide]",1.35
19,"COc1ccc(CN2CCC(NC(=O)c3ccc(-c4cccc(F)c4)nc3)CC2)cc1CN(C)C [Example 364, N-(1-{3-[(Dimethylamino)methyl]-4-methoxybenzyl}piperidin-4-yl)-6-(3-fluorophenyl)nicotinamide]",4.03

# Second part, the molecule after the results:
row,IC50 [nM],Compound
1,0.566,"Cc1nn(C)cc1CN1CCC(NC(=O)c2ccc(-c3cccc(F)c3)nc2)CC1 [Example 328, N-{1-[(1,3-Dimethyl-1H-pyrazol-4-yl)methyl]piperidin-4-yl}-6-(3-fluorophenyl)nicotinamide]"
2,1.04,"CC(C)(C)OC(=O)N1CCCC(CN2CCC(NC(=O)c3ccc(-c4cccc(F)c4)nc3)CC2)C1 (stereo not drawn) [Example 333, tert-Butyl 3-{[4-({[6-(3-fluorophenyl)pyridin-3-yl]carbonyl}amino)piperidin-1-yl]methyl}piperidine-1-carboxylate]"
3,0.776,"Cc1nn(-c2ccccc2)c(C)c1CN1CCC(NC(=O)c2ccc(-c3cccc(F)c3)nc2)CC1 [Example 335, N-{1-[(3,5-Dimethyl-1-phenyl-1H-pyrazol-4-yl)methyl]piperidin-4-yl}-6-(3-fluorophenyl)nicotinamide]"
4,1.17,"COC(=O)Cn1cc(CN2CCC(NC(=O)c3ccc(-c4cccc(F)c4)nc3)CC2)c2ccccc21 [Example 339, Methyl (3-{[4-({[6-(3-fluorophenyl)pyridin-3-yl]carbonyl}amino)piperidin-1-yl]methyl}-1H-indol-1-yl)acetate]"
5,1.17,"O=C(NC1CCN(Cc2nc3c(s2)CCCC3)CC1)c1ccc(-c2cccc(F)c2)nc1 [Example 340, 6-(3-Fluorophenyl)-N-[1-(4,5,6,7-tetrahydro-1,3-benzothiazol-2-ylmethyl)piperidin-4-yl]nicotinamide]"
6,0.485,"O=C(NC1CCN(CC2=Cc3ccccc3OC2)CC1)c1ccc(-c2cccc(F)c2)nc1 [Example 341, N-[1-(2H-Chromen-3-ylmethyl)piperidin-4-yl]-6-(3-fluorophenyl)nicotinamide]"
7,0.281,"O=C(NC1CCN(Cc2ccccc2-c2cncnc2)CC1)c1ccc(-c2cccc(F)c2)nc1 [Example 342, 6-(3-Fluorophenyl)-N-[1-(2-pyrimidin-5-ylbenzyl)piperidin-4-yl]nicotinamide]"
8,0.174,"Cc1onc(-c2ccccc2)c1CN1CCC(NC(=O)c2ccc(-c3cccc(F)c3)nc2)CC1 [Example 344, 6-(3-Fluorophenyl)-N-{1-[(5-methyl-3-phenylisoxazol-4-yl)methyl]piperidin-4-yl}nicotinamide]"
9,0.508,"CC(C)(C)OC(=O)N1CCC(CN2CCC(NC(=O)c3ccc(-c4cccc(F)c4)nc3)CC2)C1 (stereo not drawn) [Example 345, tert-Butyl 3-{[4-({[6-(3-fluorophenyl)pyridin-3-yl]carbonyl}amino)piperidin-1-yl]methyl}pyrrolidine-1-carboxylate]"
10,0.578,"CC(C)(CNC(=O)OC(C)(C)C)CN1CCC(NC(=O)c2ccc(-c3cccc(F)c3)nc2)CC1 [Example 347, tert-Butyl {3-[4-({[6-(3-fluorophenyl)pyridin-3-yl]carbonyl}amino)piperidin-1-yl]-2,2-dimethylpropyl}carbamate]"
11,0.612,"O=C(NC1CCN(Cc2c(F)c(F)cc(F)c2F)CC1)c1ccc(-c2cccc(F)c2)nc1 [Example 348, 6-(3-Fluorophenyl)-N-[1-(2,3,5,6-tetrafluorobenzyl)piperidin-4-yl]nicotinamide]"
12,0.247,"O=C(NC1CCN(CC2CCOC2)CC1)c1ccc(-c2cccc(F)c2)nc1 (stereo not drawn) [Example 350, 6-(3-Fluorophenyl)-N-[1-(tetrahydrofuran-3-ylmethyl)piperidin-4-yl]nicotinamide]"
13,0.531,"Cc1cc(CN2CCC(NC(=O)c3ccc(-c4cccc(F)c4)nc3)CC2)no1 [Example 351, 6-(3-Fluorophenyl)-N-{1-[(5-methylisoxazol-3-yl)methyl]piperidin-4-yl}nicotinamide]"
14,0.625,"Cn1nccc1CN1CCC(NC(=O)c2ccc(-c3cccc(F)c3)nc2)CC1 [Example 352, 6-(3-Fluorophenyl)-N-{1-[(1-methyl-1H-pyrazol-5-yl)methyl]piperidin-4-yl}nicotinamide]"
15,0.959,"COc1ccc(CN2CCC(NC(=O)c3ccc(-c4cccc(F)c4)nc3)CC2)cn1 [Example 353, 6-(3-Fluorophenyl)-N-{1-[(6-methoxypyridin-3-yl)methyl]piperidin-4-yl}nicotinamide]"
16,0.513,"Cc1cc(CN2CCC(NC(=O)c3ccc(-c4cccc(F)c4)nc3)CC2)ccn1 [Example 355, 6-(3-Fluorophenyl)-N-{1-[(2-methylpyridin-4-yl)methyl]piperidin-4-yl}nicotinamide]"
17,0.443,"O=C(NC1CCN(Cc2ccno2)CC1)c1ccc(-c2cccc(F)c2)nc1 [Example 359, 6-(3-Fluorophenyl)-N-[1-(isoxazol-5-ylmethyl)piperidin-4-yl]nicotinamide]"
18,1.05,"Cc1nn(-c2ccc(F)cc2)c(C)c1CN1CCC(NC(=O)c2ccc(-c3cccc(F)c3)nc2)CC1 [Example 362, 6-(3-Fluorophenyl)-N-(1-{[1-(4-fluorophenyl)-3,5-dimethyl-1H-pyrazol-4-yl]methyl}piperidin-4-yl)nicotinamide]"
19,0.299,"O=C(NC1CCN(Cc2ccon2)CC1)c1ccc(-c2cccc(F)c2)nc1 [Example 363, 6-(3-Fluorophenyl)-N-[1-(isoxazol-3-ylmethyl)piperidin-4-yl]nicotinamide]"
20,0.13,"COc1ccc(-n2ccnc2CN2CCC(NC(=O)c3ccc(-c4cccc(F)c4)nc3)CC2)cc1 [Example 365, 6-(3-Fluorophenyl)-N-(1-{[1-(4-methoxyphenyl)-1H-imidazol-2-yl]methyl}piperidin-4-yl)nicotinamide]"
